Test: Inhibition of U46619-induced platelet aggregation

| IC50 [nM] | SMILES |
| --- | --- |
| 278 | CCCCCNC(=O)NS(=O)(=O)c1cc([N+](=O)[O-])ccc1Nc1ccc(C)cc1 |
| 900 | Cc1ccc(Nc2ccc([N+](=O)[O-])cc2S(=O)(=O)NC(=O)N2CCCCC2)cc1 [N-[2-(4-methylphenylamino)-5-nitrobenzenesulfonyl]-piperidine-1-carboxamide] |
| 300 | Cc1ccc(Oc2ccc([N+](=O)[O-])cc2S(=O)(=O)NC(=O)NC(C)(C)C)cc1 [N-tert-butyl-N'-[2-(4-methylphenoxy)-5-nitrobenzenesulfonyl]urea] |
| 670 | CCCCCNC(=O)NS(=O)(=O)c1cc([N+](=O)[O-])ccc1Oc1ccc(C)cc1 [N-n-pentyl-N'-[2-(4-methylphenoxy)-5-nitrobenzenesulfonyl]urea] |
| 90 | Cc1cccc(C)c1Nc1ccc([N+](=O)[O-])cc1S(=O)(=O)NC(=O)NC(C)(C)C [N-tert-butyl-N'-[2-(2,6-dimethylphenylamino)-5-nitrobenzenesulfonyl]urea] |
| 240 | Cc1ccc(Nc2ccc([N+](=O)[O-])cc2S(=O)(=O)NC(=O)NC(C)(C)C)cc1 [BM 573] |
| 800 | Cc1ccc(Sc2ccc([N+](=O)[O-])cc2S(=O)(=O)NC(=O)NC(C)(C)C)cc1 [N-tert-butyl-N'-[2-(4-methylphenylthio)-5-nitrobenzenesulfonyl]urea] |
